{
  "source": "patent US20090246172A1",
  "about": "“COMPOSITIONS COMPRISING EPOTHILONES AND THEIR USE FOR THE TREATMENT OF CARCINOID SYNDROME” (priority 2001, published 2009)",
  "system": "carcinoid syndrome and/or at least one neuroendocrine tumor",
  "assay": "treatment of a human patient with epothilone B (Example 1)",
  "type": "in vivo",
  "protocol": "A human patient experiencing 3 loose bowel movements each day, frequent nausea and anorexia presented a plasma serotonin level of 361 ng/ml and an octreotide scan showing foci of abnormal activity in the pelvis, liver, upper chest and neck. They received 2.5 mg/m^2 of epothilone B weekly every 3 of 4 weeks.",
  "data": [
    {"smiles": "C/C(=C\\c1csc(C)n1)[C@@H]1C[C@@H]2O[C@]2(C)CCC[C@H](C)[C@H](O)[C@@H](C)C(=O)C(C)(C)[C@@H](O)CC(=O)O1", "note": "[epothilone B]", "values": [
      {"measurement": "octreotide scan", "setting": "2.5 mg/m^2 weekly every 3 of 4 weeks, after 6 doses plus further about two months", "result": "no evidence of disease"},
      {"measurement": "octreotide scan", "setting": "2.5 mg/m^2 weekly every 3 of 4 weeks, after 6 doses, before treatment foci in pelvis, liver, upper chest and neck", "result": "minimal focus of activity in the pelvis alone"},
      {"measurement": "tumor burden of the patient", "setting": "conclusion drawn from the observations in Example 1 ('make it likely')", "result": "significantly decreased"},
      {"measurement": "plasma serotonin level", "setting": "patient, 2.5 mg/m^2 weekly every 3 of 4 weeks, 6 doses plus further about two months, level before treatment 361 ng/ml, within normal limits", "result": 62, "unit": "ng/mL"}
    ]}
  ]
}
